Results taken from US12084459B2, “2-(4-{1-[6-(4-isopropyl-phenyl)-imidazo[2,1-b][1,3,4]thiadiazol-2-yl]-piperidin-4-ylmethyl}-piperazin-1-yl)-ethanol and use thereof” (Urifer Ltd., priority 2020, dated 2024).

Assays:
[1] = test system: metastatic pancreatic ductal adenocarcinoma Su.86.86 cancer cells; experiment: viability / killing of Su.86.86 cells; type: cell-based; settings: E266 versus E260; compound (I) as tartarate salt in 0.5% Tween-80; FIG. 4
Procedure: (§1) The compound (I), as tartarate salt was dissolved in 0.5% Tween-80 to affect the viability of several cell lines as follows.
(§2) The effect of the compound (I) (E266) on the growth profile of cancer cells which express Fer was tested. The cells that were tested were: the metastatic colon cancer cell line—SW620, the metastatic pancreatic ductal-adenocarcinoma SU.86.86 cancer cell-line—SU.86.86, the metastatic Triple Negative breast cancer cell line—MDA-MB-231, and the metastatic prostate cancer cell-line—PC3. The effect of the compound (I) (E266) on FS11 cells, a non malignant fibroblastic cell line, was also studied.

[2] = test system: metastatic adenocarcinoma PC3 prostate Cancer cells; experiment: viability / killing of PC3 cells; type: cell-based; settings: E266 versus E260; compound (I) as tartarate salt in 0.5% Tween-80; FIG. 6
Procedure: as §1, §2

H358 derived xenografts = H358 derived xenografts in Nude mice; type: in vivo; settings: 25 mg/kg daily intraperitoneal in 1% Tween 80, H358 xenografts, FIG. 7
Text: In vivo activity of the E266 (compound (I) of the present application) compared to that of the E260 (EP 2401283) in H358 derived xenografts in immune-compromised (Nude) mice.
In order to compare the relative efficacy of E266 and E260 in inhibiting the development and progression of malignant tumors in-vivo, the activity in xenograft model in mice was examined for both compounds. H358 derived xenografts in immune-compromised were elicited in (Nude) mice. The H358 cells, which are metastatic bronchioloalveolar carcinoma (BAC)-non-small cell lung cancer (NSCLC) cells, were subcutaneously injected to the back of the nude mice. When the developing xenografts reached 100 mm^3 size, the inflicted animals were divided into three groups, 10 mice in each group. One group received daily intraperitoneal injection of the solvent 1% Tween 80. This solvent/emulsifier is biocompatible and is approved for pharmaceutical applications in humans. The second group received daily intraperitoneal injection of 25 mg/kg E260 dissolved in 1% Tween 80, and the third group got daily intraperitoneal injection of 25 mg/kg, E266 dissolved in the 1% Tween 80, solvent. The progression of the elicited xenografts was monitored by measuring twice a week the volumes of the developing tumors.

[3] = test system: metastatic colon cancer SW620 cells; experiment: viability / killing of SW620 cells; type: cell-based; settings: E266 versus E260; compound (I) as tartarate salt in 0.5% Tween-80; FIG. 3
Procedure: as §1, §2

[4] = test system: metastatic Triple negative MDA-MB-231 Breast cancer cells; experiment: viability / killing of MDA-MB-231 cells; type: cell-based; settings: E266 versus E260; compound (I) as tartarate salt in 0.5% Tween-80; FIG. 5
Procedure: as §1, §2

[5] = insolubility level in PBS/Polysorbate-80 (Tween 80) solution; type: physicochemical; settings: 0.5 mM and 1 mM in PBS/Polysorbate-80 (Tween 80) solution at 25° C. (FIG. 1A, 1B)
normal Epithelial cells = experiment: effect on normal epithelial cells; type: cell-based; settings: FIG. 2
Procedure: Compound (I) was dissolved in 20% hydroxypropylcyclodextrane and the volume of administration (IP) was 10 ml/kg.

solubility (insolubility level) [5]: insoluble
Structure (SMILES): CC(C)c1ccc(-c2cn3nc(N4CCC(CN5CCN(C)CC5)CC4)sc3n2)cc1 [Compound E260, reference compound]
killing metastatic pancreatic ductal adenocarcinoma Su.86.86 cancer cells [1]: comparable activity | killing metastatic adenocarcinoma PC3 prostate Cancer cells [2]: comparable activity | progression of the developing tumors (xenograft volume) (H358 derived xenografts): failed to do so | killing metastatic colon cancer SW620 cells [3]: comparable activity | killing metastatic Triple negative MDA-MB-231 Breast cancer cells [4]: comparable activity | effect on normal Epithelial cells (normal Epithelial cells): no effect
